Values after ≈ are worked out from the molar mass of the structure shown. “Also recorded” adds a separate entry of the source.
Columns and labels:
[1] = Solid-state stability study, ambient conditions (6 months); assay type: physicochemical; settings: clear glass vial
Description: A second stability study was carried out where 50 mg each of the 2:3 olaparib oxalic acid cocrystal, 1:1 olaparib oxalic acid cocrystal, and 2:1 olaparib oxalic acid cocrystal were separately placed in a clear glass vial which was then stored under ambient conditions for 6 months. After this time, all the cocrystals remained as white solids with no signs of colour change.

[2] = Solid-state stability study, accelerated conditions (40° C./75% RH, 4 months); assay type: physicochemical; settings: for stability to polymorph conversion or hydrate formation on long storage (summary of Tables 4 and 5): 4 months accelerated conditions and 6 months ambient conditions; for Appearance / XRPD analysis: 40° C./75% RH - 4 months, sealed container
Description: A study was carried out to examine the physical stability of the olaparib oxalic acid cocrystals with respect to solid form conversion or signs of decomposition over time under both ambient and accelerated conditions. 50 mg each of the 2:3 olaparib oxalic acid cocrystal, 1:1 olaparib oxalic acid cocrystal, and 2:1 olaparib oxalic acid cocrystal were separately placed in a sealed container at 40° C. and 75% relative humidity and stored under these conditions for 4 months. After this time, all samples remained as white solids with no signs of deliquescence.

[3] = Dissolution study in simulated intestinal fluid (FaSSIF V2); assay type: physicochemical; settings: from four minutes onwards; 50 ml FaSSIF V2, pH 6.5, 37° C.; FIG. 12
From the text: For BCS class IV drugs, such as olaparib, where both solubility and permeability are limited, the rate of dissolution of the drug form used can be the controlling factor in the overall absorption and thus the bioavailability of a drug. This becomes even more influential as the dose of a drug increases. Given the high dose of olaparib needed in its current marketed indications it is likely that a high dose may be needed for use in alternative conditions, thus finding a crystalline form of olaparib that has a high dissolution rate is important. A study was, therefore, carried out to examine the rate of dissolution of the 2:3 olaparib oxalic acid cocrystal, 1:1 olaparib oxalic acid cocrystal, and 2:1 olaparib oxalic acid compared with the 1:1 olaparib urea cocrystal of CN 105753789 and the pure crystalline olaparib form A. The dissolution study was carried out using 50 ml simulated intestinal fluid (FaSSIF V2) at pH 6.5 (37° C.) using a quantity of each olaparib form equivalent to 25 mg olaparib. […] Detection and quantification of olaparib was performed by in-situ UV-spectroscopy using a fibre-optic probe, allowing instantaneous data collection from the point of sample introduction. UV absorption data was converted to mg/ml (±0.2 mg/ml) using a previously determined pH dependent molar extinction coefficients to quantitate the amount of dissolved drug.

[4] = Gravimetric Vapour Sorption (GVS) analysis; assay type: physicochemical; settings: for polymorphic form conversion or hydrate formation under raised relative humidity levels: GVS; for moisture reversibly adsorbed (GVS): across the 0-90% relative humidity range at 25° C. under nitrogen; for XRPD analysis post GVS analysis: at both 0% RH and 90% RH
Description: Gravimetric Vapor Isotherm (GVS) Analysis: Sorption isotherms were obtained using a Hiden Isochema moisture sorption analyser (model IGAsorp), controlled by IGAsorp Systems Software V6.50.48. The sample was maintained at a constant temperature (25° C.) by the instrument controls. The humidity was controlled by mixing streams of dry and wet nitrogen, with a total flow of 250 ml·min^−1. The instrument was verified for relative humidity content by measuring three calibrated Rotronic salt solutions (10-50-88%). The weight change of the sample was monitored as a function of humidity by a microbalance (accuracy +/−0.005 mg). A defined amount of sample was placed in a tared mesh stainless steel basket under ambient conditions. The sample was held at 50% RH for ˜60 minutes and then the initial desorption cycle was initiated. A full experimental cycle typically consisted of three scans (desorption, sorption and desorption) at a constant temperature (25° C.) and 10% RH intervals over a 0-90% range (60 minutes for each humidity level). Data analysis was performed in Microsoft Excel. […] XRPD analysis at both 0% RH and 90% RH post GVS analysis confirmed that the cocrystal was unchanged. […]

[5] = EMA/CHMP/789139/2014; low solubility and low permeability; cited from earlier work
[6] = pH independent; cited from earlier work

Structure (SMILES) | Appearance [1] | XRPD analysis [1] | stability to polymorph conversion or hydrate formation on long storage (summary of Tables 4 and 5) [2] | Appearance [2] | XRPD analysis [2] | polymorphic form conversion or hydrate formation under raised relative humidity levels ([4]; 0-90% RH, 25° C.) | moisture reversibly adsorbed (GVS) [4] [% w/w] | XRPD analysis post GVS analysis [4] | further results
O=C(O)C(=O)O.O=C(c1cc(Cc2n[nH]c(=O)c3ccccc23)ccc1F)N1CCN(C(=O)C2CC2)CC1 [1:1 olaparib oxalic acid cocrystal] | No change | No change | stable to polymorph conversion or hydrate formation | No change | No change | – | – | – | –
NC(N)=O.O=C(c1cc(Cc2n[nH]c(=O)c3ccccc23)ccc1F)N1CCN(C(=O)C2CC2)CC1 [1:1 olaparib urea cocrystal] | – | – | – | – | – | – | – | – | level of dissolution compared with pure crystalline olaparib form A [3]: only achieves the same level of dissolution as pure crystalline olaparib form A
O=C(O)C(=O)O.O=C(c1cc(Cc2n[nH]c(=O)c3ccccc23)ccc1F)N1CCN(C(=O)C2CC2)CC1.O=C(c1cc(Cc2n[nH]c(=O)c3ccccc23)ccc1F)N1CCN(C(=O)C2CC2)CC1 [2:1 olaparib oxalic acid cocrystal] | No change | No change | stable to polymorph conversion or hydrate formation | No change | No change | does not show any polymorphic form conversion or hydrate formation | 0.59 | unchanged | –
O=C(O)C(=O)O.O=C(O)C(=O)O.O=C(O)C(=O)O.O=C(c1cc(Cc2n[nH]c(=O)c3ccccc23)ccc1F)N1CCN(C(=O)C2CC2)CC1.O=C(c1cc(Cc2n[nH]c(=O)c3ccccc23)ccc1F)N1CCN(C(=O)C2CC2)CC1 [2:3 olaparib oxalic acid cocrystal] | – | – | stable to polymorph conversion or hydrate formation | No change | No change | does not show any polymorphic form conversion or hydrate formation | 0.23 | unchanged | hygroscopicity ([4]; 0-90% RH, 25° C.): not hygroscopic
O=C(c1cc(Cc2n[nH]c(=O)c3ccccc23)ccc1F)N1CCN(C(=O)C2CC2)CC1 [olaparib, 4-[(3-{[4-(cyclopropylcarbonyl)piperazin-1-yl]carbonyl}-4-fluorophenyl)methyl]phthalazin-1(2H)-one] | – | – | – | – | – | – | – | – | BCS class [5]: class IV; also recorded: class 4
O=C(c1cc(Cc2n[nH]c(=O)c3ccccc23)ccc1F)N1CCN(C(=O)C2CC2)CC1 [polymorph A] | – | – | – | – | – | – | – | – | aqueous solubility [6]: ~0.1 mg/mL (≈ 230 µM)
